# Test results as given in patent publication US5428018A, “Phenylalanine analogs of bombesin” (Merrell Dow Pharmaceuticals Inc., priority 1994, dated 1995).
# Where two headings read alike, the source gives them in different places. *1 amine or outer side, *2 acyl side, *3 side chain or, on linkers, in order; H or OH if unused. Where a SMILES comes first, the peptide text is derived from it. [ ]: non-standard residue; d: D form. The star is where a group is joined. X2 = CC(C)C[C@@H](C(N)=O)S(=O)(=O)C[C@H](Cc1ccccc1)N*; X1 = CN(/C(=C\c1ccccc1)C(=O)[*:2])[*:1]; pGlu = O=C1CC[C@@H](C(=O)O)N1
# Assays:
# bombesin receptor [1] = biological target: T1, bombesin receptor (Mus musculus, UniProt P21729); test: Phosphatidylinositol (PI) turnover in chopped mouse pancreas; type: cell-based
# T1 construct: from tissue
# T1 sequence (P21729 whole entry): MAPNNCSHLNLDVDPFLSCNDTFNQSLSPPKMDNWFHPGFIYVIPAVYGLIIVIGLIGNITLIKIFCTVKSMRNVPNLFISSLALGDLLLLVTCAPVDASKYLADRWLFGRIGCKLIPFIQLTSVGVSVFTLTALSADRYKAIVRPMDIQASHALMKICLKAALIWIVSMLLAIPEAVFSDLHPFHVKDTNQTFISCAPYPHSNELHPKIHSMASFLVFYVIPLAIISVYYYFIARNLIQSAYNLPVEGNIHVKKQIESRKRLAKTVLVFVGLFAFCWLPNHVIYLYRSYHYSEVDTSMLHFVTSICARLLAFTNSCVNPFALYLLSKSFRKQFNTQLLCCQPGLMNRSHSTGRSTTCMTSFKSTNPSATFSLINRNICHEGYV
# Experimental: (§1) Pept. […] Pept 32: 241-251, 1991.
# Pancrea from mice were chopped at 350 μm with a tissue chopper and pooled in Krebs-Hepes buffer [118 mM NaCl, 1.2 mM K2 PO4, 4.7 mM KCl, 1.2 mM MgSO4, 1.0 mM CaCl2, 11.7 mM glucose, 20 mM Hepes (pH 7.4)]. The chopped tissue was washed once with oxygenated Krebs-Hepes,then incubated for 30 minutes in 37° C. oxygenated Krebs-Hepes buffer with fresh buffer after 15 minutes. The tissue was then incubated in this buffer containing 200 μCi of [^3 H]inositot at 37° C. for 1 hour. The tissue was then washed twice and incubated for another 30 minutes in oxygenated Krebs-Hepes (containing 10 mM Li+) at 37° C. and with fresh buffer change after 15 minutes. Portions of the tissue mass (approximately 10 mg per assay tube) were then placed in Li+ buffer with protease inhibitors (40 μg/ml bacitracin, 4 μg/ml leupeptin, 4 μg/ml chymostatin, 0.8 μg/ml thiorphan), 0.1% BSA, and 0.1-1000 μM peptide. After 60 minutes at room temperature, the phosphatidylinositol turnover was terminated by the addition of 940 μl chloroform:methanol (1:2), followed by 310 μl chloroform, followed by 310 μl water. Each tube was then vortexed three times for 5 seconds each time and then centrifuged at […] for 8 minutes to separate the phases. 50 μl of the bottom phase (chloroform) was withdrawn from each tube and placed in a counting vial, dried, and counted in scintillation fluid. 900 μl of the top (aqueous) phase was then mixed with 2.1 ml water and loaded onto a 0.5 ml Biorad AG-1×8 (formate) ion exchange column. The material on the columns was washed in order with: 1) 10 ml of water 2) 5 ml of […] disodium tetraborate/60 mM sodium formate 3) 10 ml of 1M ammonium formate in 0.1M formic acid. The final (third) wash was collected and one ml was mixed with 14 ml of Bio-Safe or E-Colume scintillant and counted. The ratio of these counts (total inositol phosphates) to the corresponding organic phase counts (inositol incorporated into the tissue) was then calculated for each sample. The ratios in the presence of test compound and/or standards were then compared to the ratios for control tubes (i.e., no stimulating agonist). The abilities of test compounds to stimulate phosphatidylinositol turnover were determined with the aid of a computer program.
# [2] = tested on: cell surface receptors that bind bombesin; settings: background section; read-out: KD of high-affinity cell surface receptors that bind bombesin; cited from earlier work
# bombesin receptor [3] = biological target: T1, bombesin receptor; test: Competitive binding of 125I-GRP to the bombesin receptor in mouse pancreas membranes
# Experimental: as §1
# The pancreas from one or more mice were pooled and homogenized in 50 mM HEPES (pH 7.4) containing 120 mM NaCl, 5 mM KCl, and protease inhibitors (1 μg/ml aprotinin, leupeptin, pepstatin; 4 μg/ml bacitracin, antipain, bestatin; 100 μM PMSF; 1 mM EDTA) at 4° C. and centrifuged at 37,500 × g for 15 minutes. The pellet was resuspended in 50 mM HEPES (pH 7.4) containing 10 mM EDTA, 300 mM KCl, and protease inhibitors, and then incubated for 30 minutes at 4° C. The suspension was centrifuged as above and the pellet was washed two times in 50 mM HEPES (pH 7.4) containing 0.8 μg/ml thiorphan and protease inhibitors, and again centrifuged. The tissue was then resuspended in incubation buffer (1 ml per 4 mg pancreas) and incubated for 15 minutes at room temperature, then 250 μl were added to each assay tube to commence the assay. The assay tubes contained incubation buffer consisting of 50 mM HEPES (pH 7.4), 0.5% BSA, protease inhibitors, 2 mM MnCl2, 0.8 μg/ml thiorphan, 1 μM somatostatin, and concentrations of ^125 I-GRP and peptides as needed in a final volume of 500 μl. The assay was allowed to proceed to equilibrium for 90 minutes at room temperature. After this time, the contents of each tube were rapidly filtered over Whatman GF/B filters presoaked in 0.1% polyethyleneimine and the tubes and filters were rapidly washed three times with ice-cold 50 mM HEPES (pH 7.4). Filter-bound radioactivity was quantitated in a gamma counter. Competition of iodinated GRP binding by test compounds or standards was expressed as a percentage of ^125 I-GRP binding in the absence of peptide. Affinity and maximal binding were calculated with LIGAND (Biosoft, Cambridge, UK).
smiles,measurement,setting,value
"CSCC[C@H](NC(=O)[C@H](CC(C)C)NC(=O)[C@H](Cc1cnc[nH]1)NC(=O)CNC(=O)[C@@H](NC(=O)[C@H](C)NC(=O)[C@H](Cc1c[nH]c2ccccc12)NC(=O)[C@H](CCC(N)=O)NC(=O)[C@H](CC(N)=O)NC(=O)CNC(=O)[C@H](CC(C)C)NC(=O)[C@H](CCCN=C(N)N)NC(=O)[C@H](CCC(N)=O)NC(=O)[C@@H]1CCC(=O)N1)C(C)C)C(N)=O [Analog II, Bombesin]",Agonist,bombesin receptor [1],+
same,Antagonist,bombesin receptor [1],-
same,Kd,[2],1 nM
"CSCC[C@H](NC(=O)[C@H](Cc1ccccc1)NC(=O)[C@H](Cc1c[nH]cn1)NC(=O)CNC(=O)[C@@H](NC(=O)[C@H](C)NC(=O)[C@H](Cc1c[nH]c2ccccc12)NC(=O)[C@H](CCC(N)=O)NC(=O)[C@@H]1CCC(=O)N1)C(C)C)C(N)=O [Analog III, Litorin]",Agonist,bombesin receptor [1],+
same,Antagonist,bombesin receptor [1],-
"COC(=O)/C(=C/c1ccccc1)NC(=O)[C@H](CC(C)C)NC(=O)[C@H](Cc1c[nH]cn1)NC(=O)CNC(=O)[C@@H](NC(=O)[C@H](C)NC(=O)[C@H](Cc1c[nH]c2ccccc12)NC(=O)[C@H](CCC(N)=O)NC(=O)[C@@H](Cc1ccccc1)NC(C)=O)C(C)C [Analog IV, (Ac-D-Phe^1,Leu^8,Δ^Z Phe9)litorin-OMe]",Kd,bombesin receptor [3],1.18 nM
"CC(C)C[C@@H](C(N)=O)S(=O)(=O)C[C@H](Cc1ccccc1)NC(=O)[C@H](Cc1c[nH]cn1)NC(=O)CNC(=O)[C@@H](NC(=O)[C@H](C)NC(=O)[C@H](Cc1c[nH]c2ccccc12)NC(=O)[C@H](CCC(N)=O)NC(=O)[C@@H]1CCC(=O)N1)C(C)C [Analog IX, (Phe^8 .PSI.[CH2 SO2]Leu^9 litorin] ([pGlu]QWAVGH-X2; C-terminus assumed)",Kd,bombesin receptor [3],9.9 nM
same,Antagonist,bombesin receptor [1],30
same,Agonist/antagonist character in words,bombesin receptor [1]; text under Table 1,antagonist
"COC(=O)/C(=C\c1ccccc1)NC(=O)[C@H](CC(C)C)NC(=O)[C@H](Cc1c[nH]cn1)NC(=O)CNC(=O)[C@@H](NC(=O)[C@H](C)NC(=O)[C@H](Cc1c[nH]c2ccccc12)NC(=O)[C@H](CCC(N)=O)NC(=O)[C@@H](Cc1ccccc1)NC(C)=O)C(C)C [Analog VII, (Ac-D-Phe^1,Leu^8,Δ^E Phe^9)litorin-OMe]",Kd,bombesin receptor [3],18.6 nM
"COC(=O)/C(=C/c1ccccc1)N(C)C(=O)[C@H](CC(C)C)NC(=O)[C@H](Cc1c[nH]cn1)NC(=O)[C@@H](C)NC(=O)[C@@H](NC(=O)[C@H](C)NC(=O)[C@H](Cc1c[nH]c2ccccc12)NC(=O)[C@H](CCC(N)=O)NC(=O)[C@@H](Cc1ccccc1)NC(C)=O)C(C)C [Analog VIII, (Ac-D-Phe^1,D-Ala^6,Leu^8,N(Me)Δ^Z Phe^9) litorin-OMe] (Ac-[dF]QWAV[dA]HL[X1]-OMe)",Kd,"bombesin receptor [3]; competitive binding vs 125I-GRP, mouse pancreas, read-out: Kd",65.3 nM
